Reference: US20200360332A1, “COMPOUND FOR USE IN THE INCREASING OF MENTAL CAPACITY” (LEIBNIZ-INSTITUT FUER NEUROBIOLOGIE (LIN) STIFTUNG DES …, priority 2017, published 2020)

Tests used:
[1] = test system: Drosophila melanogaster larvae; assay: Learning experiment E (scent/fructose reward) with Drosophila melanogaster larvae raised on feed mash containing the compound; type: in vivo; settings: for improvement in learning capability compared with FSE-20 (summary statement): Drosophila larvae, effect of FSE-20>FSE-16>>FSE-8; for learning and memory capability P vs control K (Example 2): 7.1×10^−7 M (700 nM) final concentration in feed mash
Protocol: Depicted in FIG. 1A is an overview of a learning experiment E with Drosophila melanogaster larvae. […] One group represents the control group K, which was raised with standard feed mash, and the three other groups were each raised with different concentrations of FSE-20 (7.1×10^−8, 7.1×10^−7, and 7.1×10^−6[M] FSE-20) in the feed mash. After 5 days (arrow with “5d”), the learning experiment E was carried out. In the learning experiment E, the animals were each subjected to one of two inverse training regimens A and then subjected to a test B. The first group I was presented in training A with a first scent with the feed reward (fructose), while a second scent was presented alone (first scent+/second scent). In FIG. 1A, the first scent is depicted as a white square and the second scent as a black square. […] The second group II was trained inversely (first scent/second scent+). In test B of the learning experiment E, it was subsequently examined whether the larvae of the two groups I, II prefer the first scent or the second scent in a selection situation and thus their learning and memory capability (performance index) P was determined. Shown in FIG. 2A is an overview with the compounds used in this example as additions to the feed mash. One group of the Drosophila melanogaster larvae was the control group K, which was raised with standard feed mash. Furthermore, one group was raised with FSE-20 in a concentration of 7.1×10^−7 M in the feed mash. The other groups were raised with a concentration of 7.1×10^−7 M of the different FSE-20 derivatives in the feed mash. These FSE-20 derivatives comprise FSE-8, FSE-12, FSE-16, 4OH-ZSE-20, and DH-FSE-20. After five days (arrow with “5d”), the Drosophila melanogaster larvae were tested in the learning experiment E, as described in Example 1.

[2] = test system: mice; assay: Learning experiment E in mice (conditioned fear, freezing) after intraperitoneal injection; type: in vivo; settings: 6 mg/kg i.p. prior to training
Protocol: In order to determine the effect of FSE-20 on the learning and memory capability P in 3- to 4-month-old mice, the animals underwent intraperitoneal injection with an FSE-20 solution (6 mg/kg body weight) prior to the training A. In the learning experiment E on the next day, the animals were placed in a specific environment during the training A, while the mice were subjected at the same time to an aversive electrical stimulus (lightning symbol). Subsequently, in the first test B-1 one day later (1 d), the nonspecific fear reaction (freezing) F was measured in a neutral environment, that is, in an environment that was new for the animals. In the second test B-2, two hours (2 h) after the first test B-1, the fear reaction in the environment was measured, in that the animals were presented with the electrical stimulus during the training A (conditioned environment).
Shown in FIG. 4B is a graphic illustration that summarizes the results of the learning experiment E on mice. […] The first span of time of the second test comprises the 1st-5th minute and the second span of time comprises the 6th-10th minute. The result of the first span of time is represented as black bars and the result of the second span of time is represented as white bars with black longitudinal stripes.

[3] = test system: hippocampal CA1 mouse cells; assay: Ex vivo patch-clamp electrophysiological recordings on hippocampal CA1 pyramidal cells; type: cell-based, mice; settings: for number of action potentials vs control K: current intensities of 40 to 440 pA
Protocol: The patch-clamp method was carried out on whole CA1 pyramidal cells from “acute” (freshly prepared) hippocampus slices of four-to-six-week-old male mice in order to measure the effects of FSE-20 on neuronal excitability.
Shown are the action potentials of the control K as well as those of the cells treated with FSE-20.
Depicted in FIG. 5B is a graphic illustration in which the number of action potentials is shown in relation to the injected current intensity (pA) of the differently treated cells and of the control group K.

[4] = test system: older Drosophila melanogaster flies; assay: Learning experiment E with mature, older Drosophila melanogaster flies fed FSE-20; type: in vivo
Protocol: In this experiment, the flies were divided into two groups, a control group K, which was fed with standard feed, and a test group, for which FSE-20 was added to the feed. The concentration of FSE-20in the feed was 7.1×10^−7 M. The flies were tested in a learning experiment E, corresponding to the principle of Example 1, 15 days (arrow with “15d”) after the adult animals had hatched.

CCCCCCCCCCCCCCCCCCCCOC(=O)/C=C/c1ccc(O)cc1 [4OH-ZSE-20, icosyl (2E)-3-(4-hydroxyphenyl)prop-2-enoate]
improvement in learning capability compared with FSE-20 (summary statement) [1]: weaker, but still marked activity
learning and memory capability P vs control K (Example 2) ([1]; larvae, 5 days): slight increase

CCCCCCCCCCCCCCCCCCCCOC(=O)CCc1ccc(O)c(OC)c1 [DH-FSE-20, icosyl 3-(4-hydroxy-3-methoxyphenyl)propanoate]
improvement in learning capability compared with FSE-20 (summary statement) [1]: less pronounced
learning and memory capability P vs control K (Example 2) ([1]; larvae, 5 days): increases learning and memory

CCCCCCCCOC(=O)/C=C/c1ccc(O)c(OC)c1 [FSE-8, octyl (2E)-3-(4-hydroxy-3-methoxyphenyl)prop-2-enoate]
improvement in learning capability compared with FSE-20 (summary statement) [1]: less pronounced
learning and memory capability P vs control K (Example 2) ([1]; larvae, 5 days): increases the learning and memory capability P

CCCCCCCCCCCCOC(=O)/C=C/c1ccc(O)c(OC)c1 [FSE-12, dodecyl (2E)-3-(4-hydroxy-3-methoxyphenyl)prop-2-enoate]
learning and memory capability P vs control K (Example 2) ([1]; larvae, 5 days): slight increase

CCCCCCCCCCCCCCCCOC(=O)/C=C/c1ccc(O)c(OC)c1 [FSE-16, hexadecyl (2E)-3-(4-hydroxy-3-methoxyphenyl)prop-2-enoate]
improvement in learning capability compared with FSE-20 (summary statement) [1]: less pronounced
learning and memory capability P vs control K (Example 2) ([1]; larvae, 5 days): increases learning

CCCCCCCCCCCCCCCCCCCCOC(=O)/C=C/c1ccc(O)c(OC)c1 [FSE-20, icosyl (2E)-3-(4-hydroxy-3-methoxyphenyl)prop-2-enoate]
fear behavior (freezing) F in second half (6th-10th minute) compared with first half (1st-5th minute) ([2]; mice 3-4 months, second test B-2, conditioned environment): just as strongly pronounced
memory stability vs control ([2]; mice): more stable memory over time
number of action potentials vs control K ([3]; 1 μM): increased significantly
number of action potentials vs control K ([3]; 4 μM): increased significantly
excitability of pyramidal CA1 hippocampus cells ([3]; ex vivo, summary statement): increases in a dose-dependent manner
improvement of learning and memory capability P in older animals ([4]; 7.1×10^−7 M in feed, tested 15 days after hatching): approximately 50%
learning capability of older flies (summary statement) ([4]; FSE-20 in feed): doubled
learning and memory capability of larvae (summary statement) ([1]; added to feed of larvae): significantly in a dose-dependent manner
concentration at which an effect is seen ([1]; in feed mash): 700 nM
improvement of learning and memory capability P ([1]; larvae, 700 nM in feed mash, 5 days): approximately 50%
learning and memory capability P vs control K (Example 2) ([1]; larvae, 5 days): marked increase
learning and memory capability P (performance index) vs control K ([1]; larvae, 7.1×10^−8, 7.1×10^−7 or 7.1×10^−6 M in feed mash, 5 days): increased
learning and memory capability P ([1]; larvae, very high concentrations starting at 7 μM in feed mash, 5 days): declines once again
learning and memory capability P ([1]; larvae, very low concentration, 70 nM in feed mash, 5 days): increase in learning tendency
